Measured values as given in Sander's compilation of Henry's law constants.
Where “and” joins values, the source holds several entries; their conditions need not be identical. Equal values may be shown once.

Experiment: Henry solubility constant Hcp at 298.15 K (mol/(m3 Pa))
[1] = reference: Chaintreau et al. (1995)
[2] = reference: Fichan et al. (1999)
[3] = reference: Butler et al. (1935)
[4] = reference: Snider and Dawson (1985)
[5] = reference: Charles and Destaillats (2005)
[6] = reference: Wieland et al. (2015)
[7] = reference: Buttery et al. (1971)
[8] = reference: Hovorka et al. (2019)
[9] = reference: Straver and de Loos (2005)
[10] = reference: McFall et al. (2020)
[11] = reference: Schuhfried et al. (2015)
[12] = reference: Fenclová et al. (2010)
[13] = reference: Amoore and Buttery (1978)
[14] = reference: Wetlaufer et al. (1964)
[15] = reference: Khan and Brimblecombe (1992)

## Cc1cncc(C)n1 [2,6-dimethylpyrazine]
[1]
  Henry solubility constant Hcp: 0.98

## Cc1cccc(C)n1 [2,6-dimethylpyridine]
reference: Hawthorne et al. (1985)
  Henry solubility constant Hcp: 0.66

## CC1(C)C2CC3OC3(C)C1C2 (stereo not given) [2,7,7-trimethyl-3-oxatricyclo[4.1.1.0(2,4)]octane]
[2]
  Henry solubility constant Hcp: 0.023

## Clc1ccc2c(c1)Oc1ccc(Cl)cc1O2 [2,7-dichlorodibenzo-p-dioxin]
reference: Santl et al. (1994)
  Henry solubility constant Hcp: 0.17

## CC(N)CO (stereo not given) [2-amino-1-propanol]
reference: Nguyen (2013)
  Henry solubility constant Hcp: 1300

## CC(C)(N)CO [2-amino-2-methyl-1-propanol]
reference: Nguyen (2013)
  Henry solubility constant Hcp: 700

## CCC(C)N (stereo not given) [2-butanamine]
reference: Kish et al. (2013)
  Henry solubility constant Hcp: 0.4

## CCC(C)O (stereo not given) [2-butanol]
[3]
  Henry solubility constant Hcp: 0.96
[4]
  Henry solubility constant Hcp: 1.1

## CCCCOCCOC(C)=O [2-butoxyethyl ethanoate]
reference: Kim et al. (2000)
  Henry solubility constant Hcp: 1.8

## CCC(C)O[N+](=O)[O-] (stereo not given) [2-butyl nitrate]
reference: Hauff et al. (1998)
  Henry solubility constant Hcp: 0.0044
reference: Luke et al. (1989)
  Henry solubility constant Hcp: 0.0063

## FC(F)(F)CCl [2-chloro-1,1,1-trifluoroethane]
reference: Maaßen (1995)
  Henry solubility constant Hcp: 0.00037
reference: Reichl (1995)
  Henry solubility constant Hcp: 0.00041

## FC(F)=CCl [2-chloro-1,1-difluoroethene]
reference: Maaßen (1995)
  Henry solubility constant Hcp: 0.00017
reference: Reichl (1995)
  Henry solubility constant Hcp: 0.00017

## CC(C)(C)Cl [2-chloro-2-methylpropane]
reference: Clarke et al. (1962)
  Henry solubility constant Hcp: 0.00016

## Clc1ccccc1-c1ccccc1 [2-chlorobiphenyl]
[5]
  Henry solubility constant Hcp: 0.03

## CCOC(C)(C)CC(C)(C)C [2-ethoxy-2,4,4-trimethylpentane]
reference: Haimi et al. (2006)
  Henry solubility constant Hcp: 0.00077

## CCOC(C)(C)CC [2-ethoxy-2-methylbutane]
reference: Haimi et al. (2006)
  Henry solubility constant Hcp: 0.0048

## CCCCC(CC)CO (stereo not given) [2-ethyl-1-hexanol]
reference: Wu et al. (2022a)
  Henry solubility constant Hcp: 0.15

## CCc1ncc(C)nc1C [2-ethyl-3,5-dimethylpyrazine]
[6]
  Henry solubility constant Hcp: 2.9

## CCc1nccnc1OC [2-ethyl-3-methoxypyrazine]
[7]
  Henry solubility constant Hcp: 0.67

## CCc1cnccn1 [2-ethylpyrazine]
[7]
  Henry solubility constant Hcp: 4

## CCCCCC(C)=O [2-heptanone]
reference: Chai et al. (2005)
  Henry solubility constant Hcp: 0.068
reference: Kim et al. (2000)
  Henry solubility constant Hcp: 0.062

## CCCCC(C)=O [2-hexanone]
reference: Chai et al. (2005)
  Henry solubility constant Hcp: 0.086
[8]
  Henry solubility constant Hcp: 0.099
[9]
  Henry solubility constant Hcp: 0.11

## COC(=O)c1ccccc1O [2-hydroxybenzoic acid methyl ester]
reference: Karl et al. (2008)
  Henry solubility constant Hcp: 0.33

## COc1nccnc1CC(C)C [2-isobutyl-3-methoxypyrazine]
[7]
  Henry solubility constant Hcp: 0.2

## CC(C)Cc1cnccn1 [2-isobutylpyrazine]
[7]
  Henry solubility constant Hcp: 2

## CCCCCC(C)(C)OC [2-methoxy-2-methylheptane]
reference: Haimi et al. (2006)
  Henry solubility constant Hcp: 0.0019

## C=CCc1ccc(O)c(OC)c1 [2-methoxy-4-(2-propenyl)-phenol]
[10]
  Henry solubility constant Hcp: 9.2

## C=CC(=C)C [2-methyl-1,3-butadiene]
reference: Leng et al. (2013)
  Henry solubility constant Hcp: 0.00034
[11]
  Henry solubility constant Hcp: 0.0003

## CCC(C)CO (stereo not given) [2-methyl-1-butanol]
[3]
  Henry solubility constant Hcp: 0.7
[12]
  Henry solubility constant Hcp: 0.78

## CC(C)CS [2-methyl-1-propanethiol]
reference: Zin et al. (2016)
  Henry solubility constant Hcp: 0.001

## CC(C)CO [2-methyl-1-propanol]
[3]
  Henry solubility constant Hcp: 0.83
[4]
  Henry solubility constant Hcp: 1

## CCC(C)(C)O [2-methyl-2-butanol]
[3]
  Henry solubility constant Hcp: 0.71
[12]
  Henry solubility constant Hcp: 0.72

## C=C(C)C(=O)O [2-methyl-2-propenoic acid]
reference: Khan et al. (1992)
  Henry solubility constant Hcp: 25

## CCC(=O)C(C)C [2-methyl-3-pentanone]
[8]
  Henry solubility constant Hcp: 0.052

## C=C(C)[C@@H]1CC=C(C)C(=O)C1 [2-methyl-5-(1-methylethenyl)-2-cyclohexen-1-one]
[13]
  Henry solubility constant Hcp: 0.49

## CCC(C)C=O (stereo not given) [2-methylbutanal]
reference: Pollien et al. (2003)
  Henry solubility constant Hcp: 0.023

## Cc1ccco1 [2-methylfuran]
[6]
  Henry solubility constant Hcp: 0.0015

## CC1(C)[C@@H]2CC[C@@]1(C)[C@](C)(O)C2 [2-methylisoborneol]
reference: Ömür-Özbek and Dietrich (2005)
  Henry solubility constant Hcp: 0.089

## CC1CNCCN1 (stereo not given) [2-methylpiperazine]
reference: Nguyen (2013)
  Henry solubility constant Hcp: 5000

## CC(C)C [2-methylpropane]
reference: McAuliffe (1963)
  Henry solubility constant Hcp: 8.5e-06
reference: Mohebbi et al. (2012)
  Henry solubility constant Hcp: 0.00011
[14]
  Henry solubility constant Hcp: 9.9e-06

## CC(C)COC(=O)C(C)C [2-methylpropyl 2-methylpropanoate]
[13]
  Henry solubility constant Hcp: 0.01

## Cc1cnccn1 [2-methylpyrazine]
[7]
  Henry solubility constant Hcp: 4.5

## O=[N+]([O-])c1ccccc1O [2-nitrophenol]
reference: Guo and Brimblecombe (2007)
  Henry solubility constant Hcp: 1.4
reference: Harrison et al. (2002)
  Henry solubility constant Hcp: 0.83
reference: Müller and Heal (2001)
  Henry solubility constant Hcp: 0.89

## CC(=O)C(=O)O [2-oxopropanoic acid]
[15]
  Henry solubility constant Hcp: 3100
reference: Khan et al. (1992)
  Henry solubility constant Hcp: 3100
reference: Khan et al. (1995)
  Henry solubility constant Hcp: 3100

## CCCC(C)O (stereo not given) [2-pentanol]
[3]
  Henry solubility constant Hcp: 0.67
[12]
  Henry solubility constant Hcp: 0.71

## CCCC(C)O[N+](=O)[O-] (stereo not given) [2-pentyl nitrate]
reference: Hauff et al. (1998)
  Henry solubility constant Hcp: 0.0037

## CC(C)S [2-propanethiol]
reference: Haimi et al. (2006)
  Henry solubility constant Hcp: 0.0013
reference: Zin et al. (2016)
  Henry solubility constant Hcp: 0.0016

## Clc1ccc(-c2ccc(Cl)c(Cl)c2)cc1Cl [3,3',4,4'-tetrachlorobiphenyl]
[5]
  Henry solubility constant Hcp: 0.029

## C=CCSCC=C [3,3'-thiobis-1-propene]
reference: Lindinger et al. (1998)
  Henry solubility constant Hcp: 0.0041

## FC(F)(F)C(F)(F)C(Cl)Cl [3,3-dichloro-1,1,1,2,2-pentafluoropropane]
reference: Kutsuna (2013)
  Henry solubility constant Hcp: 9.8e-05

## CC(=O)C(C)(C)C [3,3-dimethyl-2-butanone]
[8]
  Henry solubility constant Hcp: 0.043

## Cc1ccc(N)cc1C [3,4-dimethylbenzenamine]
reference: Jayasinghe et al. (1992)
  Henry solubility constant Hcp: 5.3

## CCCCOCCOCCO [3,6-dioxa-1-decanol]
reference: Kim et al. (2000)
  Henry solubility constant Hcp: 1400

## C=CC(C)(O)CCC=C(C)C (stereo not given) [3,7-dimethyl-1,6-octadien-3-ol]
reference: Copolovici and Niinemets (2007)
  Henry solubility constant Hcp: 0.38
reference: Leng et al. (2013)
  Henry solubility constant Hcp: 0.2

## C#CCBr [3-bromo-1-propyne]
reference: Yates and Gan (1998)
  Henry solubility constant Hcp: 0.0088

## C#CC=C [3-buten-1-yne]
reference: Simpson and Lovell (1962)
  Henry solubility constant Hcp: 0.00038

## C=CC(C)=O [3-buten-2-one]
reference: Allen et al. (1998)
  Henry solubility constant Hcp: 0.21
reference: Iraci et al. (1999)
  Henry solubility constant Hcp: 0.4
reference: Ji and Evans (2007)
  Henry solubility constant Hcp: 0.26

## CCCC(=O)CC [3-hexanone]
[8]
  Henry solubility constant Hcp: 0.076

## CC(=O)C(C)O (stereo not given) [3-hydroxy-2-butanone]
[9]
  Henry solubility constant Hcp: 0.57
reference: Wu et al. (2022b)
  Henry solubility constant Hcp: 3.1

## CC(C)CCO[N+](=O)[O-] [3-methyl-1-butanol nitrate]
reference: Hauff et al. (1998)
  Henry solubility constant Hcp: 0.005

## CC(C)CCO [3-methyl-1-butanol]
reference: Ammari and Schroen (2019)
  Henry solubility constant Hcp: 0.67
[12]
  Henry solubility constant Hcp: 0.82

## CC(C)C(C)O (stereo not given) [3-methyl-2-butanol]
[12]
  Henry solubility constant Hcp: 0.54

## CC(=O)C(C)C [3-methyl-2-butanone]
[8]
  Henry solubility constant Hcp: 0.093

## Cc1cccc(C=O)c1 [3-methylbenzaldehyde]
reference: Wu et al. (2022b)
  Henry solubility constant Hcp: 0.3

## CC(C)CC(=O)O [3-methylbutanoic acid]
[13]
  Henry solubility constant Hcp: 12
[15]
  Henry solubility constant Hcp: 12
reference: Khan et al. (1995)
  Henry solubility constant Hcp: 12
reference: Kim and Kim (2016)
  Henry solubility constant Hcp: 27
reference: von Hartungen et al. (2004)
  Henry solubility constant Hcp: 11

## Cc1c[nH]c2ccccc12 [3-methylindole]
[14]
  Henry solubility constant Hcp: 2.9e-05

## Cc1cccnc1 [3-methylpyridine]
[1]
  Henry solubility constant Hcp: 0.42

## CCC(O)CC [3-pentanol]
[12]
  Henry solubility constant Hcp: 0.64

## CCC(CC)O[N+](=O)[O-] [3-pentyl nitrate]
reference: Hauff et al. (1998)
  Henry solubility constant Hcp: 0.0038

## Brc1ccc(Oc2ccc(Br)cc2)cc1 [4,4'-dibromodiphenyl ether]
[5]
  Henry solubility constant Hcp: 0.073

## Clc1ccc(-c2ccc(Cl)cc2)cc1 [4,4'-dichlorobiphenyl]
[5]
  Henry solubility constant Hcp: 0.035

## O=C1OCc2c(Cl)c(Cl)c(Cl)c(Cl)c21 [4,5,6,7-tetrachlorophthalide]
reference: Kawamoto and Urano (1989)
  Henry solubility constant Hcp: 18

## CC(C)(C)CC(C)(C)c1ccc(O)cc1 [4-(1,1,3,3-tetramethylbutyl)-phenol]
reference: Xie et al. (2004)
  Henry solubility constant Hcp: 2.3

## Brc1ccc(Oc2ccccc2)cc1 [4-bromodiphenyl ether]
[5]
  Henry solubility constant Hcp: 0.058

## COc1cc(C)ccc1O [4-methyl-2-methoxyphenol]
reference: Sagebiel et al. (1992)
  Henry solubility constant Hcp: 7.7 and 7.1

## CC(=O)CC(C)C [4-methyl-2-pentanone]
[8]
  Henry solubility constant Hcp: 0.065
reference: Kim et al. (2000)
  Henry solubility constant Hcp: 0.039

## CCCc1ccc(O)c(OC)c1 [4-propylguaiacol]
[10]
  Henry solubility constant Hcp: 4.3

## CC(=O)CCC=C(C)C [6-methyl-5-hepten-2-one]
reference: Wu et al. (2022b)
  Henry solubility constant Hcp: 0.12

## C=CC(=C)CCC=C(C)C [7-methyl-3-methylene-1,6-octadiene]
[2]
  Henry solubility constant Hcp: 0.00087
[11]
  Henry solubility constant Hcp: 0.00036

## CC(C)(C)OC=O [(1,1-dimethylethyl)-methanoate]
reference: Arp and Schmidt (2004)
  Henry solubility constant Hcp: 0.014
